Key:
[1] = test system: APPs levels in the cerebrospinal fluid; assay: Western blot of secreted APPs in CSF after i.p. injection; assay type: in vivo, guinea pig; details: for APPs levels in the cerebrospinal fluid relative to saline-injected control: CSF one hour after injection, p<0.05; for Inhibition of the stimulatory effect of dexnorfenfluramine (1 mg/kg) on APPs in CSF: ritanserin 1 mg/kg or ketanserin 2 mg/kg, CSF one hour after injections
Excerpt: (§1) Guinea pigs are acclimatized to animal housing conditions for at least 70 days before receiving drug treatments or CSF withdrawal. CSF is withdrawn from the cisternae magna. Briefly, the dorsal cervical area and the occipital area of the skull is shaved and cleansed with alcohol after anesthesizing the guinea pigs with ketamine. A 33-gauge needle is used to penetrate the skin, the atlanto-occipital membrane and the dura mater in the region between the anterior of the first vertebra, and posterior of the cerebellum and the occipital protuberance. Upon penetration of the cistemae magna, a slight resistance in advancing the needle is felt; CSF is withdrawn via a PE10 polyethylene tubing attached to the needle at one end, and to a 20 ml syringe at the other. No more than 200 μL of CSF is withdrawn from each guinea pig per session or within a 24h interval. Occasionally, blood is present in the CSF; these samples are discarded and not used for analysis. The entire procedure for CSF withdrawal is completed within 5 minutes.
[…] Sterile normal saline is given control guinea pigs. To determine the time-course of APPs secretion, CSF is withdrawn at 1, 2, 4 or 8h after i.p. injections of either 1 mg/kg dexnorfenfluramine or saline. To determine the effect of chronic dexnorfenfluramine administration on secreted and brain APP levels, guinea pigs are injected with 2 mg/kg dexnorfenfluramine for 10 consecutive days. Withdrawal of CSF is performed 2h after dexnorfenfluramine on the tenth day, after which the guinea pigs are sacrificed and brains removed for analysis. Each guinea pig is repeatedly and randomly assigned on different days for either dose-response, for time-course, and for dexnorfenfluramine-5HT antagonist studies of APPs or Aβ secretion.
CSF (1-200 μL) is used for Western blot analysis of secreted APPs. For analysis of APP holoprotein, brain tissue from the cortex and hippocampus are collected in Eppendorf tubes and sonicated in 50 μL lysis buffer (60 mM Tris-HCl, 4%SDS, 20% glycerol, 1 mM dithiotreitol). The samples are boiled for 10 min to inhibit protease activity. The total amount of protein in each sample is measured by the bicinchoninic acid (Sigma) assay. Prior to gel electrophoresis, 1 μL of 5% bromphenol blue solution is added to each sample.
The amount of CSF or cell protein loaded for sodium dodecyl sulfate-polyacrylamide gel electrophoresis (10-20% SDS PAGE; Bio-Rad) is normalized for the amount of protein per sample. Proteins (equivalent to ˜100 μg cell protein/lane) are separated by electrophoresis, electroblotted onto polyvinylidene difluoride membranes (Immobilon-P, Millipore) and blocked in Tris-buffered saline with 0.15% Tween 20 (TBST) containing 5% powdered milk for 30 min. After 2×10 min rinses in TBST, the membranes are incubated in TBST containing an appropriate antibody. Monoclonal antibody 22C11 (from Boehringer-Mannheim) and APP-KPI (from Chemicon) were used to detect the N-terminus and KPI-domain of APP respectively; an antibody against glial fibrillary acidic […] (GFAP) is obtained from Chemicon.
After an overnight incubation, membranes are rinsed in TBST before being treated for lh with a peroxidase-linked secondary antibody. After several rinses in TBST, protein bands are visualized on Kodak X-AR films by an enhanced chemiluminescence method (Amersham). Optical densities of the protein bands are quantitated by laser scanning densitometry (LKB, Bromma, Sweden), and normalized to the densities of those bands generated under control conditions.
Data Analysis—Measurements of cellular and secreted proteins are normalized against those of control groups prepared in parallel and loaded onto the same blot. Analyses of variance (ANOVA) and t-tests for repeated measures are used to evaluate differences between groups (significance level, p=0.05), using drug treatments as the independent variable. Data are presented as means±SE, n=number of independent experiments.

[2] = test system: Aβ1-42 in the cerebrospinal fluid; assay: Aβ42 ELISA of CSF after i.p. injection; assay type: in vivo, guinea pig
Excerpt: as §1, with “minutes. […]” for “minutes.”
(§2) Measurements of soluble Aβ1-40 or Aβ1-42 in the CSF are quantified using the Aβ40 or Aβ42 enzyme-linked immunosorbent assay (ELISA) kit (QBC, Hopkinton, Mass.) using the procedures recommended by the manufacturer. […]

[3] = test system: Aβ1-40 in the cerebrospinal fluid; assay: Aβ40 ELISA of CSF after i.p. injection; assay type: in vivo, guinea pig
Excerpt: as §1, with “minutes. […]” for “minutes.”
as §2

[4] = test system: GFAP-immunoreactive cultured astrocytes; assay: APP overexpression in cultured astrocytes; assay type: cell-based, rat
Protocol: Astrocytes are isolated from cortices from postnatal rats by methods standard in the art. In brief, dissected cortices are dissociated by trypsinization and trituration through a flamepolished Pasteur pipette. Cells are plated onto poly-L-lysine coated 35- or 100 mm culture dishes at densities of about 10-25 cells/mm^2. The initial culture media, minimal essential medium (MEM, Gibco) containing 10% horse serum (BioWhittaker), are aspirated after 2-5 h after plating to remove unattached cells and debris, and replaced with MEM containing 7.5% fetal bovine serum (FBS, BioWhittaker). Half the media is replaced with MEM/7.5% FBS twice weekly. Cells are kept at 37° C. in a humidified 5% CO2/95% air incubator. Media are changed twice weekly. […]
The amount of media or cell protein loaded for sodium dodecyl sulfate-polyacrylamide gel electrophoresis (10-20% SDS PAGE; Bio-Rad) is normalized for the amount of protein per sample. […] Monoclonal antibodies 22C11 and GFAP (both from Boehringer Mannheim) are used to detect the N-terminus of APP and glial fibrillary acidic protein respectively; antisera R37 and R98 (gifts of Dr. F. Kametani, Tokyo Institute of Psychiatry) are used to detected the C-terminus and KPI motifs of APP respectively; antiserum C8 (gift of Dr. D. Selkoe, Women's Hospital, Harvard Medical School, Cambridge, Mass.) is used to detect the C-terminus of APP. […]

[5] = test system: Brain APP holoprotein; assay: Western blot of brain APP holoprotein after chronic administration; assay type: in vivo, guinea pig; details: 10 consecutive days i.p., 1 mg/kg, p>0.05
[6] = 10 consecutive days i.p., 1 mg/kg
[7] = 0.5, 1, 2 or 4 mg/kg, single injection, p>0.05

SMILES	APPs levels in the cerebrospinal fluid relative to saline-injected control ([1]; 0.5 mg/kg i.p.)	APPs levels in the cerebrospinal fluid relative to saline-injected control ([1]; 1 mg/kg i.p.)	APPs levels in the CSF relative to control group ([1]; 1 mg/kg, 1h after injection)	APPs levels in the CSF relative to control group ([1]; 1 mg/kg, 2h after injection)	APPs levels in the CSF relative to control group ([1]; 1 mg/kg, 4h after injection)	APPs levels in the CSF relative to control group ([1]; 1 mg/kg, 8h after injection)	APPs levels in the cerebrospinal fluid relative to saline-injected control ([1]; 2 mg/kg i.p.)	APPs levels in the cerebrospinal fluid relative to saline-injected control ([1]; 4 mg/kg i.p.)	Increase of APPs levels in CSF relative to control [1, 6]	Effect on levels of Aβ1-42 in the cerebrospinal fluid relative to control [2, 7]	Aβ1-42 levels in CSF relative to control [2, 6]	Effect on levels of Aβ1-40 in the cerebrospinal fluid relative to control [3, 7]	Aβ1-40 levels in CSF relative to control [3, 6]	Effect on APP overexpression in cultured astrocytes [4]	Brain APP holoprotein levels [5]	Inhibition of the stimulatory effect of dexnorfenfluramine (1 mg/kg) on APPs in CSF [1]
CC(N)Cc1cccc(C(F)(F)F)c1 (single isomer, unassigned; (+)) [dexnorfenfluramine, (+)2-amino-1-(3-trifluoromethylphenyl) propane]	1.25 fold	1.45 fold	1.5 fold	2.0 fold	1.3 fold	1.5 fold	1.6 fold	1.4 fold	1.6 fold	no significant effect	decreased	no significant effect	decreased	can inhibit APP overexpression	not altered	
O=C(c1ccc(F)cc1)C1CCN(CCn2c(=O)[nH]c3ccccc3c2=O)CC1 [ketanserin]																completely inhibited
Cc1nc2sccn2c(=O)c1CCN1CCC(=C(c2ccc(F)cc2)c2ccc(F)cc2)CC1 [ritanserin]																completely inhibited

— patent publication US20020173511A1, “Serotonergic compositions and methods for treatment of mild cognitive impairment” (priority 2000, published 2002)
